According to patent US20080145313A1, “Compositions and Methods for the Treatment and Prevention of Neoplastic Disorders” (Genesis Research & Development Corporation Limited, priority 2006, published 2008):

Tested on: A549 xenograft tumor
Assay: Xenograft tumor growth of A549 cells transfected with siRNA pre-implantation in CD-1 nude mice
Assay type: in vivo, mouse
Procedure: To determine the effect of RRM1 knockdown on tumor growth, A549 cells (human lung cancer cell line; ATCC No. CCL-185) were reverse-transfected prior to implantation in CD-1 nude mice. In 175 cm^2 culture flasks, 10×10^6 A549 cells (in RPMI supplemented with 10% fetal calf serum) were added to pre-made lipoplexes. To make lipoplexes, Lipofectamine RNAiMAX in serum-free RPMI was added to an equal volume of serum-free RPMI containing siRNA (RRM1-2; SEQ ID NO: 4831 (DNA), and SEQ ID NO: 5137 (RNA)) and a control siRNA (SEQ ID NO: 4804 (DNA), and SEQ ID NO: 5301 (RNA)). After addition of cells, the final concentration of siRNA in the flask was 10 nM. Untransfected cells served as a further control. Flasks were incubated at 37° C. for 24 h to allow transfection to proceed.
The cells were harvested by trypsinization 24 h after the transfection, washed twice in PBS and viable cells were counted. Equal numbers of cells (1×10^7) were inoculated into CD-1 nude mice (n=7-9). Briefly, 5 to 7 weeks old nude mice were subcutaneously (s.c.) injected in the right flank with A549 cells in 100 μl PBS. Tumor growth was monitored 3 times per week by measuring tumor sizes using a digital caliper. Tumor volume was expressed in […] using the formula: V=a^2×b×0.52, where a and b represent the minimum and maximum tumor diameter, respectively. Mean tumor volumes calculated from each measurement were then plotted in a standard graph to compare the tumor growth of transfected cells to that of control.
To determine the effect of siRNA-mediated knockdown of HK-II, CAD, IMPDH2, RRM2, SLC16A1 and SLC29A1 on tumor growth, A549 cells (human lung cancer cell line; ATCC No. CCL-185) were reverse-transfected prior to implantation in CD-1 nude mice as described above with siRNAs given in SEQ ID NO: 5307 (DNA), and SEQ ID NO: 5304 (RNA) for RRM2, SEQ ID NO: 4932 (DNA), and SEQ ID NO: 5227 (RNA) for ENT1, SEQ ID NO: 4813 (DNA), and SEQ ID NO: 5119 (RNA) for HK-II, SEQ ID NO: 4827 (DNA), and SEQ ID NO: 5133 (RNA) for CAD, SEQ ID NO: 4879 (DNA), and SEQ ID NO: 5182 (RNA) for IMPDH2 and SEQ ID NO: 4924 (DNA), and SEQ ID NO: 5219 (RNA) for SLC16A1, respectively. The siRNA given in SEQ ID NO: 4804 (DNA), and SEQ ID NO: 5301 (RNA) was used as control.
In two separate experiments, CD-1 mice were divided into five groups that received untransfected A549 cells, cells transfected with control siRNA or three different siRNAs (as listed above), respectively. Cells were transfected in vitro using the method as described in Example 8, and 24 h after transfection, s.c. inoculated into mice. Tumor growth was measured 3 times per week. In the first experiment, mice received cells transfected with siRNA targeting RRM2, HK-II or SLC29A1 and were monitored for 33 days. In the second experiment, mice received cells transfected with siRNA targeting CAD, IMPDH2 or SLC16A1, and were monitored for 26 days. […] Similarly, preliminary data indicated tumor growth rate was reduced for the groups receiving cells transfected with siRNA targeting CAD and SLC16A1. Twenty-six days after cell inoculation, the tumor volume for mice with cells transfected with siRNA targeting CAD or SLC16A1 was 97.2±7.3 mm^3 or 110.1±28.1 mm^3, respectively.

“SEQ ID NO: 4932: siRNA targeting SLC29A1 (ENT1) (chain 1 TGATAAAGTAGCCGAAGGCACTTTC; chain 2 UGAUAAAGUAGCCGAAGGCACUUUC; chemistry not given here; one strand in two spellings)” was tested, and the “tumor growth inhibition compared to the control groups” value (cells transfected pre-implantation, monitored 33 or 26 days) was “No tumor growth inhibition”.
With “SEQ ID NO: 4924: siRNA targeting SLC16A1 (MCT1) (chain 1 TTAGACTTATCTTTCCCTGCCTTGG; chain 2 UUAGACUUAUCUUUCCCUGCCUUGG; chemistry not given here; one strand in two spellings)” the “tumor growth rate compared to control groups” value (A549 cells transfected with siRNA before s.c. inoculation) was “reduced” and the tumor volume (twenty-six days after cell inoculation, preliminary data) was 110.1±28.1 mm^3.
With “SEQ ID NO: 5307: Stealth siRNA targeting RRM2 (chain 1 AATTCATCCCAATGAGCTTCACAGG; chain 2 AAUUCAUCCCAAUGAGCUUCACAGG; Stealth siRNA, chemical pattern not given here; one strand in two spellings)” the average tumor size (thirty-three days after the cell inoculation, preliminary data) was 100.1±116.6 mm^3.
